The assay relates to isolated guinea pig heart. The assay is described as follows: Effect on coronary blood flow of the isolated guinea pig heart (perfusion with KH solution). The procedure: 1. Effect on coronary blood flow of the isolated guinea pig heart. • (1) The perfusion circuit was maintained at 37±1° C. and the perfusate in the condensing tube was thermostatic. The upper end of the condensing tube was connected with reservoir and the lower with aortic cannula via rubber tube. The perfusate level in reservoir A was constant by controlling the height of liquid below the air inlet in reservoir B. The perfusate level was about 50 cm above the aortic root. Constant oxygen was gassed into reservoir A to make the KH solution saturated with oxygen. When full of the oxygenated LH solution, the perfusion tube was clamped. • (2) On […], weighing 300 g, was stunned and exsanguinated via carotid. The chest and pericardium were opened, and then the heart was suspended in the pericardial cradle. The heart was exercised and immediately put into the cold KH solution (4° C.). The remaining blood was pressed out gently. After aortic cannulation at the top of the ascending aorta, the clamp was opened and the coronary venous effluent was present (route: coronary artery→myocardium→right atrium→vena cava and pulmonary artery). The pressure transducer was connected with the apex of heart to record the graphs and count the heart beat. The coronary venous effluent dripped into the measuring cup via a funnel. • (3) Coronary Blood Flow Measurement: The heart was allowed to recover for 10 minutes to stabilize coronary blood flow, heart rate, and heart beat amplitude. The per-minute flow volume was measured consecutively for 3 minutes. If the values were similar, the average was calculated for the normal coronary blood flow. […] The test sample and isoprenaline was injected into the aortic cannula respectively. The per-minute coronary blood flow, heart rate and heart beat duration were measured during 1˜10 min after administration, the maximum and minimum were picked out to caculate the extreme difference. Note: the second administration should not be given until the coronary blood flow returned to normal. Five replicate experiments were conducted to ensure the reproductivity.

[1] abbreviates: isolated heart, 0.25 μg injected into aortic cannula, X ± SD.

The results in this text go back to patent US20050142229A1, “Pharmaceutical activity and manufacturing method of the four-plant-derived coronary blood flow enhancing agent” (priority 2003, published 2005).

As to `CC(C)NCC(O)c1ccc(O)c(O)c1` (stereo not drawn) [Isoprenaline], where the note is “isolated guinea pig heart”, the “coronary blood flow (result in words)” value was “increased”, the “heart rate (result in words)” value is “increased” and the “myocardial contraction (result in words)” value was “increased”. For the same molecule, under setting [1], the “Coronary Blood Flow, After administration” value turned out to be 20 ± 4 mL/min; the “Heart Rate, After administration” value was found to be 198 ± 21 time/min; the “Heart beat duration, After administration” value is listed as 62 ± 10 min.
